Measurements reported in US20090068290A1, “BIFEPRUNOX DOSES FOR TREATING SCHIZOPHRENIA” (priority 2006, published 2009).

Assays:
Format in all cases: in vivo, human
[1] = tested on: adult subjects with schizophrenia; experiment: Calgary Depression Scale for Schizophrenia (CDSS), Clinical Study Three; conditions: LOCF; for Change from Baseline in CDSS Total Score, Median / Change from Baseline in CDSS Total Score, Mean (SD): 15 mg
Source text: SECONDARY OBJECTIVES To assess the efficacy of bifeprunox in treating schizophrenia using the Positive Symptom sub-scale score of the PANSS, the Negative Symptom sub-scale score of the PANSS, the General Psychopathology sub-scale of the PANSS, Brief Psychiatric Rating Scale (BPRS) total score derived from the PANSS, BPRS psychosis score derived from the PANSS, the Clinical Global Impression Severity of Illness score (CGI-S), the Clinical Global Impression Improvement score (CGI-I), CGI-I responder rate, PANSS responder rate based on the PANSS total score, Calgary Depression Scale for Schizophrenia (CDSS), and Subject Satisfaction rating.
There were four treatment arms in this study, approximately 144 subjects per arm. […] After completing the Single-Blind Placebo Lead-in Period of at least three days, bifeprunox-treated subjects were titrated from 0.25 mg up to 20 mg/day or 30 mg/day according to a standardized titration scheme over a seven- or eight-day period, respectively. When the assigned dose was reached, subjects were maintained at that dose for the remainder of the six week treatment period. […] Subjects were hospitalized (if not already inpatients) after eligibility for study entry was verified, starting from the Screening Visit until at least 10 days after Baseline. Subjects could be hospitalized longer than 10 days if considered medically necessary by the Investigator. Rating scale assessments for efficacy and abnormal movement disorders were done weekly except for Week 5. […] Subject satisfaction with study medication was assessed at Week 6.

[2] = tested on: adult subjects with schizophrenia; experiment: CGI responder rate, Clinical Study Two; conditions: LOCF
Experimental: Notable differences were also observed between the 30 mg bifeprunox group and placebo for the change from baseline to endpoint in PANSS general psychopathology subscale score, BPRS total score, BPRS psychosis cluster score, PANSS responder rate, and CGI-I responder rate. In the study, a PANSS responder refers to a subject whose PANSS total score decreased by 20% or more from baseline to endpoint. A CGI-I responder refers to a subject who was categorized as “very much improved” or “much improved” in the CGI Global Improvement scale at endpoint.
Pharmacokinetic (PK) data of bifeprunox in schizophrenic subjects were also assessed and are presented in a separate report (combined with data from study S1543003).
Subjects who completed this study had the option to continue in the long-term. […] Risperidone-treated subjects were titrated from 2 mg to 6 mg daily over a three-day period and were subsequently maintained at 6 mg/day for the remainder of the treatment period. […] Blood samples were also obtained at Screening/Baseline, Week 3, and Week 6 for clinical laboratory assessments.
CLINICAL STUDY TWO: A CGI responder is defined as a subject who is categorized as “very much improved” or “much improved” on the CGI Improvement scale. […] A notable difference between the 30 mg bifeprunox group and placebo was seen (p=0.039).

[3] = tested on: adult subjects with schizophrenia; experiment: BPRS psychosis cluster score, Clinical Study One; conditions: Risperidone 6 mg, ITT population
Experimental: There were five treatment groups in this study. […] Study medication was administered once daily. After Baseline measurements were performed, the titration phase was begun. Bifeprunox treated subjects were titrated up to 5 mg, 10 mg or 20 mg according to a standardized titration schedule (Day 1: 0.125 mg, Day 2: 0.25 mg, Day 3: 0.5 mg, Day 4: 1.0 mg, Day 5: 2.0 mg, Day 6: 5.0 mg, Day 7: 10.0 mg, Day 8: 20 mg). When the assigned dose was reached, subjects were maintained at that dose for the remainder of the six-week treatment period.

[4] = tested on: adult subjects with schizophrenia; experiment: PANSS total score, Clinical Study Two (6-week, risperidone-referenced); conditions: Risperidone 6 mg, LOCF, ITT
Experimental: Treatment started with a single-blind placebo lead-in period of at least three days, followed by titration from 0.25 mg up to 30 mg/day or 40 mg/day of bifeprunox for bifeprunox-treated subjects.
Rating scale assessments were performed weekly, except for week 5, to measure the change from baseline to endpoint of the PANSS total score. Other assessments included: PANSS positive symptom subscale score, PANSS negative symptom subscale score, PANSS general pschopathology subscale score, BPRS total score, BPRS psychosis score, the CGI-S score, the CGI-I score, responder rates based on the PANSS total score, and the Calgary Depression Scale for Schizophrenia (CDSS).
Subjects who completed this study had the option to continue in the long-term. […] After completing a Single-Blind placebo lead-in period of at least three days, bifeprunox-treated subjects were titrated from 0.25 mg up to 30 mg/day or 40 mg/day according to a standardized titration scheme over an eight-day period. When the assigned dose was reached, subjects were maintained at that dose for the remainder of the six week treatment period. […] Rating scale assessments for efficacy and abnormal movement disorders were done weekly except for Week 5. Safety assessments were performed at Screening, during treatment and at the end of the study. Subject satisfaction with study medication was assessed at Week 6. Samples of blood were obtained at Weeks 2, 4, and 6 for determination of bifeprunox in plasma. Blood samples were also obtained at Screening/Baseline, Week 3, and Week 6 for clinical laboratory assessments.
Diagnosis and Main Criteria for Inclusion: Male or female subjects 18-75 years of age with schizophrenia (per DSM-IV-TR criteria). Subjects had to have a total score on the PANSS between 70 and 120; at least two of four PANSS items (conceptual disorganization, hallucinatory behavior, suspiciousness, unusual thought content) had to have a score ≧4; and the score on the CGI-S had to be at least 4.

## Cc1cc2c(s1)Nc1ccccc1N=C2N1CCN(C)CC1 [Olanzapine, olanzapine, reference compound]
[1]; Week 1
  Change from Baseline in CDSS Total Score, Median: −1.0
[1]; Week 2
  Change from Baseline in CDSS Total Score, Mean (SD): −1.33 (3.33)
  Change from Baseline in CDSS Total Score, Median: −1.0
[1]; Week 3
  Change from Baseline in CDSS Total Score, Mean (SD): −1.59 (3.43)
  Change from Baseline in CDSS Total Score, Median: −1.0
[1]; Week 4
  Change from Baseline in CDSS Total Score, Mean (SD): −1.49 (3.89)
  Change from Baseline in CDSS Total Score, Median: −1.0
[1]; Week 6, Endpoint
  Change from Baseline in CDSS Total Score, Mean (SD): −1.47 (3.95)
  Change from Baseline in CDSS Total Score, Median: −1.0
[1]; olanzapine 15 mg, ITT
  mean change (SD) from Baseline to Endpoint in CDSS score: −1.47 (3.95)

## Cc1nc2n(c(=O)c1CCN1CCC(c3noc4cc(F)ccc34)CC1)CCCC2 [Risperidone, risperidone, reference compound]
[2]; 6 mg
  CGI Responder at Endpoint No, %: 48%
  CGI Responder at Endpoint Yes, %: 52%
[2]; risperidone 6 mg
  CGI-I responder rate (subjects much or very much improved) at Endpoint: 52%
[3]; Endpoint LOCF
  Change from Baseline in BPRS Psychosis Cluster Score, Mean (S.D.): −4.1 (3.5)
  Change from Baseline in BPRS Psychosis Cluster Score, Median: −4
[3]; Week 1, LOCF
  Change from Baseline in BPRS Psychosis Cluster Score, Mean (S.D.): −2.2 (2.7)
  Change from Baseline in BPRS Psychosis Cluster Score, Median: −2
[3]; Week 2, LOCF
  Change from Baseline in BPRS Psychosis Cluster Score, Mean S.D.: −3.6 (3.2)
  Change from Baseline in BPRS Psychosis Cluster Score, Median: −3
[3]; Week 3, LOCF
  Change from Baseline in BPRS Psychosis Cluster Score, Mean (S.D.): −4.1 (3.4)
  Change from Baseline in BPRS Psychosis Cluster Score, Median: −4
[3]; Week 4, LOCF
  Change from Baseline in BPRS Psychosis Cluster Score, Mean (S.D.): −3.9 (3.3)
  Change from Baseline in BPRS Psychosis Cluster Score, Median: −4
[4]; Week 1
  Change from Baseline in PANSS Total Score, Mean (SD): −8.7 (10.2)
  Change from Baseline in PANSS Total Score, Median: −9
[4]; Week 2
  Change from Baseline in PANSS Total Score, Mean (SD): −14.8 (14.2)
  Change from Baseline in PANSS Total Score, Median: −15
[4]; Week 3
  Change from Baseline in PANSS Total Score, Median: −18
[4]; Week 4
  Change from Baseline in PANSS Total Score, Mean (SD): −19.2 (17.0)
  Change from Baseline in PANSS Total Score, Median: −20
[4]; Week 6/Endpoint
  Change from Baseline in PANSS Total Score, Mean (SD): −19.7 (19.3)
  Change from Baseline in PANSS Total Score, Median: −21
